# Test results: patent publication US7156906B2, “Impregnating agent” (Yara International ASA, priority 2001, dated 2007)
# How the values were obtained:
# Dacrymyces stillatus = assay: growth of the fungi Dacrymyces stillatus at varying concentrations; type: cell-based; settings: FIG. 2
# Description: (§1) Coniophora puteana and […] stillatus, the former is a standard organism in such tests prescribed for use in the European Standard Test EN 113.
# Coniophora puteana [1] = assay: growth of the fungi Coniophora puteana at varying concentrations; type: cell-based; settings: FIG. 1
# Description: as §1
# Coniophora puteana [2] = assay: wood block test, % reduction of dry matter after exposure to fungi (EN 113); settings: 3 months
# Procedure: Coniophora puteana and […] stillatus, the former is a standard organism in such tests prescribed for use in the European Standard Test EN 113. The tests were carried out in the following way: Small blocks of wood of the prescribed size 5 cm×2.5 cm×1.5 cm were numbered and then dried in an oven at 105° C. for 24 hours, cooled and weighed. That represented the dry weight at start. […] The blocks were impregnated with said solution and control blocks with sterile distilled water under vacuum for 10 minutes and then left in the impregnating solution for 1 hour, whereupon they were completely soaked with the impregnating solution. Subsequent to this impregnation the blocks were placed on filter paper for 30 minutes for drainage. The test blocks were then washed three times with distilled water for 2 minutes and then left in distilled water for 24 hours and finally washed three times with distilled water and then placed on filter paper for drainage. Four blocks were used for each concentration of impregnating solution with 2 blocks in each test flask, so-called Kolle flasks. The duration of the tests was 3 months. The blocks were then removed from the flasks and scraped clean of fungi, whereupon they were dried at 105° C. for 24 hours and weighed and percent reduction in dry weight was calculated.
smiles,measurement,setting,value
"O=CO.O=C[O-].[K+] [K-diformate, potassium diformate]",concentration necessary to achieve complete retardation in growth,Dacrymyces stillatus,at least 0.18 weight %
same,concentration at which it acts as an effective fungicide (growth),Coniophora puteana [1],at least 0.13 weight %
same,concentration necessary to obtain required effect on reduction of dry matter,"Coniophora puteana [2]; with subsequent washing of test blocks, FIG. 4",4.8%
same,concentration giving complete effect on reduction of dry matter,"Coniophora puteana [2]; without subsequent washing of test blocks, FIGS. 3 and 7",1.3–2%
